Read-outs that look alike come from different tables or passages of the source.
Columns and labels:
[1] = system: Stage III-V gametocytes (blood stage P. falciparum parasites); test: In vitro drug activity on gametocytes (AlamarBlue viability assay); type: cell-based, Plasmodium falciparum; details: for EC50: read-out: Gametocyte EC50
Experimental: Cell culture. Asexual parasites of P. falciparum strain 3D7 were cultured as described previously [Trager W, et al., Journal of Parasitology 2005, 91: 484-486], Stage III-V gametocytes were selected and enriched with 3-day treatment with 50 mM N-acetylglucosamine (NAG) and the following Percoll density gradient centrifugation after gametocyte production [Tanaka T Q, et al., Molecular and Biochemical Parasitology, 2011, 111: 160-163], Gametocytes of HB3 and Dd2 strains were produced and then set up for assay in a similar process. HepG2 cells (ATCC, cat. no. 77400) were cultured in 175-cm^2 tissue culture flasks with 30 ml growth medium at 37° C. in a 5% CO2 humidified atmosphere. Growth medium was made with Dulbecco's Modified Eagle Medium with 10% fetal bovine serum (FBS). Growth medium was replaced every other day and cells were passed at 75% confluence.
Compound screening experiments were performed as previously described [Tanaka T Q et al., Molecular and Biochemical Parasitology, 2013, 3188: 20-25], Briefly, 2.5 μl/well incomplete medium was dispensed into each well of 1,536-well plates using the Multidrop Combi followed by 23 nl compound transferring using the NX-TR Pintool (WAKO Scientific Solutions, San Diego, Calif.). 2.5 μl/well of gametocytes was dispensed with a seeding density of 20,000 cells/well using the Multidrop Combi. The assay plates were incubated for 72 h at 37° C. with 5% CO2. After addition of 5 μl/well of 2× AlamarBlue dye (Life Technologies, cat. no. DALI 100), the plates were incubated for 24 h at 37° C. with 5% CO2 and were read in a fluorescence detection mode (Ex=525 nm, Em=598 nm) on a ViewLux plate reader (PerkinElmer).
Stage III-V gametocytes (blood stage P. falciparum parasites) were enriched with treatment with 50 mM N-acetylglucosamine (NAG) and Percoll density gradient centrifugation as described previously^1. Briefly, 2.5 μl/well incomplete medium was dispensed into each well of 1,536-well plates using the Multidrop Combi followed by 23 nl compound transfer using the NX-TR Pintool (WAKO Scientific Solutions, San Diego, Calif.). Then, 2.5 μl/well of gametocytes was dispensed with a seeding density of 20,000 cells/well using the Multidrop Combi. The assay plates were incubated for 72 h at 37° C. with 5% CO2. After addition of 5 μl/well of 2× AlamarBlue dye (Life Technologies, cat. no. DALI 100), the plates were incubated for 24 h at 37° C. with 5% CO2 and then were read in a fluorescence detection mode (Ex=525 nm, Em=598 nm) on a ViewLux plate reader (PerkinElmer).

[2] = system: Asexual parasites of P. falciparum strain 3D7; test: In vitro drug activity on asexual parasites (SYBR Green assay); type: cell-based, Plasmodium falciparum
Outline: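 SYBR Green I fluorescence (ex 490, em 520 nm) was read after freeze-thaw lysis and 30 min staining at room temperature. Before that, drug-treated cultures (0.5% parasitemia, 2% hematocrit, DMSO ≤0.5%) were incubated 72 h, in duplicate.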

mTOR = mTOR (Homo sapiens, UniProt P42345); test: mTOR activity (no method described); type: biochemical
[3] = Microsomal stability (rat); type: in vitro ADME; details: rat microsomes
Solubility at pH 7.4 = type: physicochemical
[4] = P. falciparum stage III-V gametocytes, 72 h incubation, AlamarBlue
[5] = P. falciparum 3D7 asexual parasites, 72 h, SYBR Green

Row | SMILES | EC50 [2] [µM] | mTOR (mTOR) [µM] | Microsomal Stability (rat) T1/2 [3] [min] | Sol @ pH 7.4 (Solubility at pH 7.4) [ug/mL] | EC50 [2, 5] [µM] | Sol @ pH 7.4 (ug/mL) (Solubility at pH 7.4) | EC50 [1] [µM] | EC50 [1, 4] [µM] | Gametocyte EC50 [1]
1 | NCc1ccc(-c2ccc3ncc4ccc(=O)n(-c5ccc(C(=O)N6CCOCC6)cc5)c4c3c2)cc1 [Compound 111] | 0.241 | 1.135 | >30.0 | 19.8 |  |  | 0.285 |  | 
2 | COc1cccc(-c2ccc3ncc4ccc(=O)n(-c5ccc(C(=O)N6CCOCC6)cc5)c4c3c2)c1 [Compound 123] | 0.145 | 0.857 | 7.3 |  |  |  | 0.442 |  | 
3 | CC1CC1NC(=O)c1ccc(-n2c(=O)ccc3cnc4ccc(-c5ccc(CN(C)C)cc5)cc4c32)cc1 (stereo not drawn) [Compound 177] |  | 9.038 |  | >74.00 |  |  | 0.902 |  | 
4 | NC1(c2ccc(-c3ccc4ncc5ccc(=O)n(-c6ccc(C(=O)N7CCOCC7)cc6)c5c4c3)cc2)CC1 [Compound 178] | 0.445 | 5.312 |  |  |  |  | 0.918 |  | 
5 | CN(C)CCc1ccc(-c2ccc3ncc4ccc(=O)n(-c5ccc(C(=O)N6CCOCC6)cc5)c4c3c2)cc1 [Compound 186] | 0.207 | 12.44 |  |  |  |  | 0.573 |  | 
6 | CC(C)(N)c1ccc(-c2ccc3ncc4ccc(=O)n(-c5ccc(C(=O)N6CCOCC6)cc5)c4c3c2)cc1 [Compound 187] | 1.6 | 0.7246 |  | 0 |  |  | 4.59 |  | 
7 | COc1cc(C(=O)NC2CC2)ccc1-n1c(=O)ccc2cnc3ccc(-c4ccc(CN(C)C)cc4)cc3c21 [Compound 190] |  | 10.68 | >30 | >77 |  |  | 0.248 |  | 
8 | NC(=O)c1cccc(-n2c(=O)ccc3cnc4ccc(-c5ccc(N)nc5)cc4c32)c1 [Compound 333] | 0.239 | 0.2135 |  |  |  |  | 0.411 |  | 
9 | CN1Cc2cc(-n3c(=O)ccc4cnc5ccc(-c6ccc(Cl)cc6)cc5c43)ccc2C1=O [Compound 341] |  |  | 12.4 |  | 0.0691 | <1.0 |  | 0.083 | 
10 | O=C1c2ccc(-n3c(=O)ccc4cnc5ccc(-c6ccc(Cl)cc6)cc5c43)cc2CN1C1CC1 [Compound 353] |  |  | >30.0 |  | 0.589 | 0 |  | 2.51 | 
11 | CN(C)Cc1ccc(-c2ccc3ncc4ccc(=O)n(-c5ccc6c(c5)CN(CC(=O)O)C6=O)c4c3c2)cc1 [Compound 355] |  |  | >30.0 |  | 2.02 | >77.0 |  | 28.8 | 
12 | O=C1CCc2cc(-n3c(=O)ccc4cnc5ccc(-c6ccc(Cl)cc6)cc5c43)ccc2N1 [Compound 356] |  |  | >30.00 |  | 0.025 | <0.10 |  | 0.0655 | 
13 | CN1C(=O)CCc2cc(-n3c(=O)ccc4cnc5ccc(-c6ccc(Cl)cc6)cc5c43)ccc21 [Compound 359] |  |  | 14.9 |  | 0.0234 | 0.06 |  | 0.13 | 
14 | O=C1NCCc2cc(-n3c(=O)ccc4cnc5ccc(-c6ccc(Cl)cc6)cc5c43)ccc21 [Compound 367] |  |  | 12.8 |  | 0.029 | 0 |  | 0.105 | 
15 | Nc1ccc(-c2ccc3ncc4ccc(=O)n(-c5ccc6c(c5)CCC(=O)N6)c4c3c2)cn1 [Compound 391] |  |  | >30.00 |  | 0.0123 | 10 |  | 0.0563 | 
16 | N#Cc1ccc(-n2c(=O)[nH]c3cnc4ccc(-c5ccc(Cl)cc5)cc4c32)cc1 [Compound 434] | 45 |  | 11.3 | <1.0 |  |  |  |  | Inactive
17 | Cn1c(=O)n(-c2cccc(C#N)c2)c2c3cc(-c4ccc(C#N)cc4)ccc3ncc21 [Compound 442] | 0.449 | 100 |  |  |  |  | 1.99 |  | 
18 | Cn1c(=O)n(-c2cccc(C#N)c2)c2c3cc(-c4ccc5[nH]cnc5c4)ccc3ncc21 [Compound 445] | 0.269 | 0.6303 |  |  |  |  | 0.735 |  | 

More lines, main results first:

Row | EC50 [2] [µM] | mTOR (mTOR) [µM] | Microsomal Stability (rat) T1/2 [3] [min] | Sol @ pH 7.4 (Solubility at pH 7.4) [ug/mL] | EC50 [2, 5] [µM] | Sol @ pH 7.4 (ug/mL) (Solubility at pH 7.4) | SMILES | EC50 [1] [µM] | EC50 [1, 4] [µM] | Gametocyte EC50 [1]
19 | 0.107 | 1.78 | 4.5 | <1.0 |  |  | C[C@@H]1CN(C(=O)c2ccc(-n3c(=O)ccc4cnc5ccc(-c6ccc(Cl)cc6)cc5c43)cc2)C[C@H](C)O1 [Compound 101] | 0.305 |  | 
20 | 0.0408 | 9.459 | 2.2 | 1.1 |  |  | Cc1cc(C(=O)N2CCOCC2)ccc1-n1c(=O)ccc2cnc3ccc(-c4ccc(Cl)cc4)cc3c21 [Compound 110] | 0.139 |  | 
21 | 0.00808 | 0.5061 |  |  |  |  | O=C(c1ccc(-n2c(=O)ccc3cnc4ccc(-c5ccccc5)cc4c32)cc1)N1CCOCC1 [Compound 125] | 0.0398 |  | 
22 | 0.0916 | 3.523 |  |  |  |  | O=C(c1ccc(-n2c(=O)ccc3cnc4ccc(-c5ccc(Cl)cc5)cc4c32)c(Cl)c1)N1CCOCC1 [Compound 159] | 0.321 |  | 
23 | 0.0902 | 0.5562 |  | <0.10 |  |  | CC1CC1NC(=O)c1ccc(-n2c(=O)ccc3cnc4ccc(-c5ccc(Cl)cc5)cc4c32)cc1 (stereo not drawn) [Compound 176] | 0.283 |  | 
24 | 0.01 | 100 |  | 0 |  |  | Cc1ccc(C#N)cc1-n1c(=O)n(C)c2cnc3ccc(-c4ccc(F)c(C#N)c4)cc3c21 [Compound 408] | 0.305 |  | 
25 | 0.0529 | 50 |  | 0 |  |  | COc1cc(-c2ccc3ncc4c(c3c2)n(-c2cc(C#N)ccc2C)c(=O)n4C)ccc1F [Compound 409] | 0.106 |  | 
26 | 0.00249 | 100 |  | 0 |  |  | Cc1ccc(C#N)cc1-n1c(=O)n(C)c2cnc3ccc(-c4ccc(Cl)c(C#N)c4)cc3c21 [Compound 410] | 0.0363 |  | 
27 | 0.0614 | 100 |  | 0 |  |  | Cc1ccc(C#N)cc1-n1c(=O)n(C)c2cnc3ccc(-c4ccc(F)cc4)cc3c21 [Compound 411] | 0.109 |  | 
28 | 0.00657 | 100 |  | 0 |  |  | Cc1ccc(C#N)cc1-n1c(=O)n(C)c2cnc3ccc(-c4cccc(C#N)c4)cc3c21 [Compound 412] | 0.0399 |  | 
29 | 0.0294 | 2.73 |  | 0 |  |  | Cn1c(=O)n(-c2cccc(C#N)c2)c2c3cc(-c4ccc(CCN)cc4)ccc3ncc21 [Compound 413] | 0.054 |  | 
30 | 0.0142 | 0.5842 |  |  |  |  | Cn1c(=O)n(-c2ccc(N3CCNCC3)c(C#N)c2)c2c3cc(-c4ccc(F)cc4)ccc3ncc21 [Compound 414] | 0.0387 |  | 
31 | 0.0214 | 15.87 |  |  |  |  | Cc1cc(N2CCNCC2)c(C#N)cc1-n1c(=O)n(C)c2cnc3ccc(-c4ccc(Cl)cc4)cc3c21 [Compound 415] | 0.0186 |  | 
32 | 0.0396 | 0.9306 |  |  |  |  | Cc1cc(N2CCNCC2)c(C#N)cc1-n1c(=O)n(C)c2cnc3ccc(-c4ccc(F)cc4)cc3c21 [Compound 416] | 0.0216 |  | 

Reference: patent publication US11753408B2, “Compounds and method for blocking transmission of malarial parasite” (The United States of America, as represented by the …, priority 2016, dated 2023)
